In patent US6683103B2, “Sulfonamides for treatment of endothelin-mediated disorders” (Texas Biotechnology Corporation, priority 1997, dated 2004):
Where two headings read alike, the source gives them in different places.

Legend:
[1] = target: T1, human ETA receptors (Homo sapiens, UniProt P25101); experiment: Binding Test #1: inhibition of 125I-ET-1 binding to ETA receptors (TE 671 cell membranes); conditions: Table 1, read-out: ETA
T1 construct: endogenous in cells; host or cells: TE 671 cells (ATCC HTB 139)
T1 sequence (P25101 21-427): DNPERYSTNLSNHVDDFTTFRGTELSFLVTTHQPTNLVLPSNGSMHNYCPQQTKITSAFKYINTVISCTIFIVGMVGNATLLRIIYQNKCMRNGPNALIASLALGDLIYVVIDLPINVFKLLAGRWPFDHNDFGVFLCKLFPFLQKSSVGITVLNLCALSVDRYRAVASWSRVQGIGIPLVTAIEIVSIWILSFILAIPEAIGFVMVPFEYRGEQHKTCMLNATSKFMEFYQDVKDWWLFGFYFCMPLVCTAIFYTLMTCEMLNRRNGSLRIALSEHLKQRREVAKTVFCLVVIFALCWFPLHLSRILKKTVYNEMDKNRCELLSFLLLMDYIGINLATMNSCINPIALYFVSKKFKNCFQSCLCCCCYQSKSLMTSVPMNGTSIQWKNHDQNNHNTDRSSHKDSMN
From the text: (§1) Compounds that are potential endothelin antagonists are identified by testing their ability to compete with ^125I-labeled ET-1 for binding to human ETA receptors or ETB receptors present on isolated cell membranes. The effectiveness of the test compound as an antagonist or agonist of the biological tissue response of endothelin can also be assessed by measuring the effect on endothelin induced contraction of isolated rat thoracic aortic rings. The ability of the compounds to act as antagonists or agonists for ETB receptors can be assess by testing the ability of the compounds are to inhibit endothelin-1 induced prostacyclin release from cultured bovine aortic endothelial cells.
A. Endothelin Binding Inhibition—Binding Test #1: Inhibition of Binding to ETA Receptors
TE 671 cells (ATCC Accession No. HTB 139) express ETA receptors. These cells were grown to confluence in T-175 flasks. Cells from multiple flasks were collected by scraping, pooled and centrifuged for 10 min at 190×g. The cells were resuspended in phosphate buffered saline (PBS) containing 10 mM EDTA using a Tenbroeck homogenizer. The suspension was centrifuged at 4° C. at 57,800×g for 15 min, the pellet was resuspended in 5 ml of buffer A (5 mM HEPES buffer, pH 7.4 containing aprotinin (100 KIU/ml)) and then frozen and thawed once. 5 ml of Buffer B (5 mM HEPES Buffer, pH 7.4 containing 10 mM MnCl2 and 0.001% deoxyribonuclease Type 1) was added, the suspension mixed by inversion and then incubated at 37° C. for 30 minutes. The mixture was centrifuged at 57,800×g as described above, the pellet washed twice with buffer A and then resuspended in buffer C (30 mM HEPES buffer, pH 7.4 containing aprotinin (100 KIU/ml) to give a final protein concentration of 2 mg/ml and stored at −70° C. until use.
The membrane suspension was diluted with binding buffer (30 mM HEPES buffer, pH 7.4 containing 150 mM NaCl, 5mM MgCl2, 0.5% Bacitracin) to a concentration of 8 μg/50 μl. ^125I-endothelin-1 (3,000 cpm, […]) was added to 50 μL of either: (A) endothelin-1 (for non specific binding) to give a final concentration 80 nM); (B) binding buffer (for total binding); or (C) a test compound (final concentration 1 nM to 100 μM). The membrane suspension (50 μL), containing up to 8 μg of membrane protein, was added to each of (A), (B), or (C). Mixtures were shaken, and incubated at 4° C. for 16-18 hours, and then centrifuged at […] for 25 min at 2,500×g. Alternatively, the incubation was conducted at 24° C. […] This, must be kept in mind when comparing IC50 concentrations among compounds provided herein.
The supernatant, containing unbound radioactivity, was decanted and the pellet counted on a Genesys multiwell gamma counter. The degree of inhibition of binding (D) was calculated according to the following equation: [formula]
Each test was generally performed in triplicate.

[2] = target: T2, human ETB receptor (Homo sapiens, UniProt P24530); experiment: Binding Test #2: inhibition of 125I-ET-1 binding to ETB receptors (transfected COS7 cell membranes); conditions: Table 1, read-out: ETB
T2 construct: expressed in transfected cells; host or cells: COS7 cells
T2 sequence (P24530 27-442): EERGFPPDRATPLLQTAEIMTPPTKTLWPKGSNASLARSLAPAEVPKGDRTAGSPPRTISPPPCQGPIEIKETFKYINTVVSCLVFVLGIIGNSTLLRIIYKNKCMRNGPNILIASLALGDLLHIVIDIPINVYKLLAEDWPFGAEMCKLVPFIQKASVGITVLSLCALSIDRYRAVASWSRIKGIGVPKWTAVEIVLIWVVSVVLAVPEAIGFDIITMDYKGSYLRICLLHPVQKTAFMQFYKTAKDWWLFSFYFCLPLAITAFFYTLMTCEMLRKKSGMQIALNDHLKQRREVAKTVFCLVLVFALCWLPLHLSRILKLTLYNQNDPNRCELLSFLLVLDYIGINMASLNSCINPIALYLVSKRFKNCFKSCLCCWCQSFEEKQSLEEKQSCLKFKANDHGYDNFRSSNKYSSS
From the text: as §1
B. Endothelin Binding Inhibition—Binding Test #2: Inhibition of Binding to ETB Receptors
COS7 cells were transfected with DNA encoding the ETB receptor, The resulting cells, which express the human ETB receptor, were grown to confluence in T-150 flasks. Membrane was prepared as described above. The binding assay was performed as described above using the membrane preparation diluted with binding buffer to a concentration of 1 μg/50 μl.
Briefly, the COS7 cells, described above, that had been transfected with DNA encoding the ETB receptor and express the human ETB receptor on their surfaces were grown to confluence in T-1 75 flasks. Cells from multiple flasks were collected by scraping, pooled and centrifuged for 10 min at 190×g. The cells were resuspended in phosphate buffered saline (PBS) containing 10 mM EDTA using a Tenbroeck homogenizer. The suspension was centrifuged at 4° C. 57,800 X g for 15 min, the pellet was resuspended in 5 ml of buffer A (5mM HEPES buffer, pH 7.4 containing aprotinin (100 KIU/ml)) and then frozen and thawed once. Five ml of Buffer B (5 mM HEPES Buffer, pH 7.4 containing 10 mM MnCl2 and 0.001% deoxyribonuclease Type 1) was added, the suspension mixed by inversion and then incubated at 37° C. for 30 minutes. The mixture was centrifuged at 57,800×g as described above, the pellet washed twice with buffer A and then resuspended in buffer C (30 mM HEPES buffer, pH 7.4 containing aprotinin (100 KIU/ml) to give a final protein concentration of 2 mg/ml.
The binding assay was performed as described above using the membrane preparation diluted to give 1 μg/50 μl of binding buffer.

Row | Molecule | IC50 ([1]; incubation at 4° C.) | IC50 ([1]; † incubation at 24° C.) | IC50 ([2]; incubation at 4° C.) | IC50 ([2]; † incubation at 24° C.)
1 | Cc1noc(NS(=O)(=O)c2c(C(C)C)sc3ccccc23)c1Br [N-(4-bromo-3-methyl-5-isoxazolyl)-2-i-propylbenzo[b]thiophene-3-sulfonamide] | 0.005 µM | 0.03 µM | 5.7 µM | 10.7 µM
2 | Cc1cc2c(cc1CCc1sccc1S(=O)(=O)Nc1onc(C)c1Br)OCO2 [N-(4-bromo-3-methyl-5-isoxazolyl)-2-[2-methyl-4,5-(methylenedioxy)phenethyl]thiophene-3-sulfonamide] |  | 0.0619 µM |  | 8.9 µM
3 | COc1ccsc1S(=O)(=O)Nc1onc(C)c1C [N-(3,4-dimethyl-5-isoxazolyl)-3-methoxythiophene-2-sulfonamide] | 2.5 µM |  | 45.5 µM | 
4 | Cc1noc(NS(=O)(=O)c2sccc2CCc2ccccc2)c1Br [N-(4-bromo-3-methyl-5-isoxazolyl)-3-(phenethyl)thiophene-2-sulfonamide] | 0.16 µM | 0.676 µM | 10.8 µM | 37.2 µM
5 | CCC(C)c1ccc(NC(=O)c2sccc2S(=O)(=O)Nc2onc(C)c2Br)cc1 (centres unmarked) [N-(4-bromo-3-methyl-5-isoxazolyl)-2-[N-(4-sec-butylphenyl)aminocarbonyl]thiophene-3-sulfonamide] | ~0.008 µM |  | 1.76 µM | 
6 | CCc1sc2ccccc2c1S(=O)(=O)Nc1onc(C)c1Br [N-(4-bromo-3-methyl-5-isoxazolyl)-2-ethylbenzo[b]thiophene-3-sulfonamide] | 0.0067 µM |  | 5.13 µM | 
7 | Cc1noc(NS(=O)(=O)c2ccc(-c3cccc(N)c3)s2)c1Br [N-(4-bromo-3-methyl-5-isoxazolyl)-5-(3-aminophenyl)thiophene-2-sulfonamide] | 0.537 µM | 1.44 µM | 1.07 µM | 2.63 µM
8 | Cc1noc(NS(=O)(=O)c2ccc(-c3ccccc3)o2)c1Br [N-(4-bromo-3-methyl-5-isoxazolyl)-5-phenylfuran-2-sulfonamide] | 0.857 µM |  | 2.43 µM | 
9 | Cc1noc(NS(=O)(=O)c2sccc2-c2ccccc2)c1Br [N-(4-bromo-3-methyl-5-isoxazolyl)-3-phenylthiophene-2-sulfonamide] | 0.0547 µM |  | 11.1 µM | 
10 | Cc1cccc(-c2ccc(S(=O)(=O)Nc3onc(C)c3Br)s2)c1 [N-(4-bromo-3-methyl-5-isoxazolyl)-5-(3-tolyl)thiophene-2-sulfonamide] |  | 15 µM |  | 4.2 µM
11 | Cc1noc(NS(=O)(=O)c2ccsc2C(=O)Nc2ccccc2)c1Br [N-(4-bromo-3-methyl-5-isoxazolyl)-2-(N-phenylaminocarbonyl)thiophene-3-sulfonamide] | 0.0054 µM |  | 18.8 µM | 
12 | Cc1cc(C)c(NC(=O)c2sccc2S(=O)(=O)Nc2onc(C)c2Cl)c(C)c1CC(=O)O [N-(4-chloro-3-methyl-5-isoxazolyl)-2-(3-carboxymethyl-2,4,6-trimethylphenylaminocarbonyl)thiophene-3-sulfonamide] |  | 0.0015 µM |  | > 100 µM
13 | Cc1noc(NS(=O)(=O)c2cc(-c3ccccc3)cs2)c1Br [N-(4-bromo-3-methyl-5-isoxazolyl)-4-phenylthiophene-2-sulfonamide] | 0.224 µM |  | 1.17 µM | 
14 | N-(4-chloro-3-methyl-5-isoxazolyl)-2-phenylbenzo[b]thiophene sulfonamide |  | 0.932 µM |  | 46.8 µM
15 | CCCc1ccc(-c2ccc(S(=O)(=O)Nc3onc(C)c3Br)s2)cc1 [N-(4-bromo-3-methyl-5-isoxazolyl)-5-(4′-propylphenyl))thiophene-2-sulfonamide] | 5.6 µM |  | 0.51 µM | 
16 | Cc1noc(NS(=O)(=O)c2ccsc2C/C=C/c2ccc3c(c2)OCO3)c1Br [N-(4-bromo-3-methyl-5-isoxazolyl)-2-[trans-(3,4-methylenedioxy)cinnamyl]thiophene-3-sulfonamide] |  | 0.14 µM |  | 1.4 µM

More lines, now with the values ahead:

Row | IC50 ([1]; incubation at 4° C.) | IC50 ([1]; † incubation at 24° C.) | IC50 ([2]; incubation at 4° C.) | IC50 ([2]; † incubation at 24° C.) | Molecule
17 | 0.281 µM |  | 2.58 µM |  | Cc1noc(NS(=O)(=O)c2cc(Br)c(Br)s2)c1Br [N-(4-Bromo-3-methyl-5-isoxazolyl)-4,5-dibromothiophene-2-sulfonamide]
18 | 6.39 µM | 6.31 µM | 0.0835 µM | 0.282 µM | Cc1noc(NS(=O)(=O)c2ccc(-c3ccc(C(F)(F)F)cc3)s2)c1Br [N-(4-bromo-3-methyl-5-isoxazolyl)-5-[4-(trifluoromethyl)phenyl]thiophene-2-sulfonamide]
19 | ~0.45 µM |  | ~4.9 µM |  | Cc1noc(NS(=O)(=O)c2cc(Cl)c(Cl)s2)c1Br [N-(4-Bromo-3-methyl-5-isoxazolyl)-4,5-dichlorothiophene-2-sulfonamide]
20 | 1.01 ± 1.03 µM | 2.7 µM | 3.7 ± 2.7 µM | 5.9 µM | Cc1noc(NS(=O)(=O)c2ccsc2NC(=O)Nc2sccc2S(=O)(=O)Nc2onc(C)c2C)c1C [N,N′-bis{3-[3,4-dimethyl-5-isoxazolyl)aminosulfonyl]thien-2-yl}urea]
21 | 0.095 ± 0.07 µM |  | 27.7 ± 15 µM |  | Cc1noc(NS(=O)(=O)c2cccs2)c1Br [N-(4-bromo-3-methyl-5-isoxazolyl)2-thiophenesulfonamide]
22 | 18.1 µM |  | 8.7 µM |  | Cc1noc(NS(=O)(=O)c2cccn2-c2ccccc2)c1Br [N-(4-Bromo-3-methyl-5-isoxazolyl)-1-(phenyl)pyrrole-2-sulfonamide]
23 | 0.0116 µM |  | 13.2 µM |  | COc1ccccc1NC(=O)c1sccc1S(=O)(=O)Nc1onc(C)c1Br [N-(4-Bromo-3-methyl-5-isoxazolyl)-2-[N-(2-methoxyphenyl)aminocarbonyl]thiophene-3-sulfonamide]
